Assay results reported in PMC10385850, “Modified Hederagenin Derivatives Demonstrate Ex Vivo Anthelmintic Activity against Fasciola hepatica” (Pharmaceutics, 2023).
Where “and” joins values, the source holds several entries; their conditions need not be identical. Equal values may be shown once. Read-outs that look alike come from different tables or passages of the source.

Assays:
[1] = system: wild strain adult F. hepatica; experiment: Ex vivo motility assay on adult liver flukes (wild strain); type: cell-based, Fasciola hepatica; details: 40 µM; for Effect on wild strain adult fluke motility, in words: 72 h; for Average motility of 4 parasites with 95% CI at 72 hour time point: wild strain adult flukes, score 1 good/normal to 6 no movement or dead
Method: Due to the high number of active molecules and a shortage of Italian strain adult liver flukes, the eleven hit compounds were screened for 72 h at 40 µM (in 0.4% DMSO) on wild strain adult F. hepatica (n = 4/condition) of unknown provenance (Table S3). The protocol for culturing and scoring (motility) the activity of these compounds was previously described (1—good/normal; 2—moderate; 3—resting (less than 10 s pulses of body and head), 4—apathetic (less than 2 s pulses of body and head), 5—paralysis and 6–no movement or dead worms). Six compounds were deemed active in these assays and were selected for further screening.

[2] = system: Madin–Darby bovine kidney (MDBK) cells; experiment: MTT cell viability assay on MDBK cells; type: cell-based; details: MDBK cells, MTT, 24 h exposure; read-out: CC50 with 95% CI on MDBK cells (cytotoxicity)
Method: (§1) MTT cell viability assays were performed on Madin–Darby bovine kidney (MDBK cells) for the five selected hederagenin derivatives (MC014, MC035, MC042, MC055 and MC062) using final concentrations of 100 μM, 75 μM, 50 μM, 25 μM, 10 μM, 5 μM and 1 μM (in 1% DMSO). Negative (1% v/v Triton X-100, Sigma-Aldrich, UK) and positive (1% v/v DMSO or media only) controls were included. The protocol was followed as previously described. Absolute EC50 values were calculated from the corrected absorbance of replicates by non-linear regression, after log transformation of concentrations and data normalization (where DMSO values represents 0% inhibition and TX-100 values represent 100% inhibition) using GrapPad Prism 8.

[3] = system: F. hepatica newly excysted juveniles (NEJs), Italian strain; experiment: Ex vivo screen against newly excysted juveniles (NEJs), phenotype and motility scoring; type: cell-based, Fasciola hepatica; details: 10 µM; for Average phenotype of 25 NEJs with 95% CI, 24 hours / Average phenotype of 25 NEJs with 95% CI, 48 hours / Average phenotype of 25 NEJs with 95% CI, 72 hours: ultrastructure score 1 normal to 6 dead or dissolved; for Activity against NEJs (first screen), in words: 72 h co-culture
Method in brief: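 Newly excysted juveniles of the Italian strain of F. hepatica were obtained by excysting metacercariae and exposed ex vivo to test compounds at 10 μM final concentration in 0.1% DMSO. Controls were 0.1% DMSO (negative) and 10 μM TCBZ in 0.1% DMSO (positive). Motility was scored from 1 (good/normal) to 5 (no movement), and ultrastructural phenotype changes were scored with an established matrix.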

[4] = system: immature F. hepatica flukes (Italian strain); experiment: Ex vivo motility assay on immature liver flukes (Italian strain), single concentration and dose response; type: cell-based, Fasciola hepatica; details: for Average motility of 4 parasites with 95% CI at 24 hour time point: score 1 normal to 5 no movement or death; for Effect on immature fluke motility, in words: by 72 h
Method: The six selected compounds (at 40 µM in 0.4% DMSO) were evaluated on immature flukes (n = 4/condition) at 24, 48 and 72 h (Table S4). The protocol for culturing and scoring (motility) of these life stages have been previously described. Due to restricted numbers of immature worms, a dose response assay was conducted only for MC042. Here, immature worms (n = 2/concentration tested) were screened against descending concentrations of MC042 (40 µM, 13.3 µM and 4.4 µM); motility scores were recorded at 24, 48 and 72 h (Table S5). The scoring pattern used is identical to that described for NEJs.

[5] = system: adult F. hepatica flukes (Italian strain); experiment: Ex vivo dose response motility assay on adult liver flukes (Italian strain); type: cell-based, Fasciola hepatica; details: for Average motility of 3 parasites treated with 4.4 µM, 24 hours / Average motility of 3 parasites treated with 4.4 µM, 48 hours / Average motility of 3 parasites treated with 4.4 µM, 72 hours / Average motility of 3 parasites treated with 13.3 µM, 24 hours / Average motility of 3 parasites treated with 13.3 µM, 48 hours / Average motility of 3 parasites treated with 13.3 µM, 72 hours / Average motility of 3 parasites treated with 40 µM, 24 hours / Average motility of 3 parasites treated with 40 µM, 48 hours / Average motility of 3 parasites treated with 40 µM, 72 hours: adult flukes Italian strain, score 1 to 6; for EC50: adult flukes, motility; for Effect on adult fluke (Italian strain) movement, in words: dose response, MC042 statement at 40 μM after 72 h
Method: The collection, ex vivo culturing and screening of adult liver fluke (Italian strain; n = 3/condition) was previously described. Dose response assays (40 µM, 13.3 µM and 4.4 µM) were conducted for MC014, MC042, MC035, MC055 and MC062 with motility scores recorded at 24, 48 and 72 h (Table S6).

[6] = MTT cell viability assay on MDBK cells; type: cell-based, bovine; details: bovine, MDBK cells (Madin–Darby bovine kidney); MDBK cells, MTT, 24 h exposure; read-out: CC50 with 95% CI on MDBK cells (cytotoxicity)
Method: as §1

[7] = motility score 1 good/normal to 5 no movement
[8] = 40 µM, 48 h, immature flukes, score 1 to 5
[9] = 40 µM, 72 h, immature flukes, score 1 to 5

Row | Structure (SMILES) | Effect on wild strain adult fluke motility, in words [1] | Average motility of 4 parasites with 95% CI at 72 hour time point [1] | Average motility of 25 NEJs with 95% CI, 24 hours [3, 7] | Average phenotype of 25 NEJs with 95% CI, 24 hours [3] | Average motility of 25 NEJs with 95% CI, 48 hours [3, 7] | Average phenotype of 25 NEJs with 95% CI, 48 hours [3] | Average phenotype of 25 NEJs with 95% CI, 72 hours ([3]; 72 h) | Activity against NEJs (first screen), in words [3] | Average motility of 4 parasites with 95% CI at 24 hour time point ([4]; 40 µM, 24 h, immature flukes) | Average motility of 4 parasites with 95% CI at 48 hour time point [4, 8] | Average motility of 4 parasites with 95% CI at 72 hour time point [4, 9] | Effect on immature fluke motility, in words ([4]; 40 µM) | Average motility of 3 parasites treated with 4.4 µM, 24 hours ([5]; 24 h) | Average motility of 3 parasites treated with 4.4 µM, 48 hours [5] | Average motility of 3 parasites treated with 4.4 µM, 72 hours ([5]; 72 h) | Average motility of 3 parasites treated with 13.3 µM, 24 hours ([5]; 24 h) | Average motility of 3 parasites treated with 13.3 µM, 48 hours [5] | Average motility of 3 parasites treated with 13.3 µM, 72 hours ([5]; 72 h) | Average motility of 3 parasites treated with 40 µM, 24 hours ([5]; 24 h) | Average motility of 3 parasites treated with 40 µM, 48 hours [5] | further results
1 | CC1(C)CC[C@]2(NC(=O)N3CCNCC3)CC[C@]3(C)C(=CCC4[C@@]5(C)CCC6OC(C)(C)OC[C@@]6(C)C5CC[C@]43C)C2C1 (stereo partly drawn) [MC035, N-((4aR,6aR,6bS,8aS,14bR)-2,2,4a,6a,6b,11,11,14b-Octamethyl-4a,5,6,6a,6b,7,8,9,10,11,12,12a,14,14a, 14b,15,16,16a-octadecahydro-4H-piceno[3,4-d][1,3]dioxin-8a(4bH)-yl)piper-azine-1-carboxamide] | partial paralysis | 5.75 (5.2; 6.2) | 5.00 (5.0;5.0) | 6.00 (6.0;6.0) | 5.00 (5.0;5.0) | 6.00 (6.0;6.0) | 6.00 (6.0;6.0) | maximal alterations to both phenotype/ultrastructure and motility | 5.00 (5.0;5.0) | 5.00 (5.0;5.0) | 5.00 (5.0;5.0) | paralyzed the assayed immature flukes | 1.00 (1.0;1.0) | 1.00 (1.0;1.0) | 1.00 (1.0;1.0) | 1.00 (1.0;1.0) | 1.00 (1.0;1.0) | 3.66 (2.3; 4.9) | 2.33 (1.6;2.9) | 4.33 (3.6;4.9) | CC50 [2]: 79.8 µM; Average motility of 3 parasites treated with 40 µM, 72 hours ([5]; 72 h): 5.00 (3.8;6.1); EC50 ([5]; 72 h, read-out: EC50 with 95% CI on Adult Flukes (motility), 72 hour): 14.3 µM; Effect on adult fluke (Italian strain) movement, in words [5]: Decreased movement
2 | CC1(C)CC[C@]2(NC(=O)N3CCOCC3)CC[C@]3(C)C(=CCC4[C@@]5(C)CC[C@@H]6OC(C)(C)OC[C@@]6(C)C5CC[C@]43C)C2C1 (stereo partly drawn) [MC042, N-((4aR,6aR,6bS,8aS,14bR,16aS)-2,2,4a,6a,6b,11,11,14b-Octamethyl-4a,5,6,6a,6b,7,8,9,10,11,12,12a, 14,14a,14b,15,16,16a-octadecahydro-4H-piceno[3,4-d][1,3]dioxin-8a(4bH)-yl)-morpholine-4-carboxamide] | no motility after 72 h | 6.00 (6.0;6.0) | 5.00 (5.0;5.0) | 6.00 (6.0;6.0) | 5.00 (5.0;5.0) | 6.00 (6.0;6.0) | 6.00 (6.0;6.0) | maximal alterations to both phenotype/ultrastructure and motility | 4.75 (4.2;5.2) | 5.00 (5.0;5.0) | 5.00 (5.0;5.0) | paralyzed the assayed immature flukes | 1.00 (1.0;1.0) | 2.00 (2.0; 2.0) | 3.00 (3.0; 3.0) | 3.66 (3.0;4.3) | 4.00(4.0; 4.0) | 4.00 (4.0; 4.0) | 5.33 (4.6;5.9) | 5.66 (5.0;6.3) | CC50 at 24 h [6]: 47.5 µM; Average motility of 25 NEJs with 95% CI, 72 hours ([3]; 72 h, motility score 1 good/normal to 5 no movement): 5.00 (5.0;5.0); Average motility of 2 parasites treated with 4.4 µM, 24 hours ([4]; 4.4 µM, 24 h, immature flukes, dose response, score 1 to 5): 4.00 (4.0;4.0); Average motility of 2 parasites treated with 4.4 µM, 48 hours ([4]; 4.4 µM, 48 h, immature flukes, dose response, score 1 to 5): 5.00 (5.0; 5.0); Average motility of 2 parasites treated with 4.4 µM, 72 hours ([4]; 4.4 µM, 72 h, immature flukes, dose response, score 1 to 5): 5.00 (5.0; 5.0); Average motility of 2 parasites treated with 13.3 µM, 24 hours ([4]; 13.3 µM, 24 h, immature flukes, dose response, score 1 to 5): 4.00 (4.0;4.0); Average motility of 2 parasites treated with 13.3 µM, 48 hours ([4]; 13.3 µM, 48 h, immature flukes, dose response, score 1 to 5): 5.00 (5.0; 5.0); Average motility of 2 parasites treated with 13.3 µM, 72 hours ([4]; 13.3 µM, 72 h, immature flukes, dose response, score 1 to 5): 5.00 (5.0; 5.0); Average motility of 2 parasites treated with 40 µM, 24 hours ([4]; 40 µM, 24 h, immature flukes, dose response, score 1 to 5): 5.00 (5.0;5.0); Average motility of 2 parasites treated with 40 µM, 48 hours ([4]; 40 µM, 48 h, immature flukes, dose response, score 1 to 5): 5.00 (5.0;5.0); Average motility of 2 parasites treated with 40 µM, 72 hours ([4]; 40 µM, 72 h, immature flukes, dose response, score 1 to 5): 5.00 (5.0,5.0); Selectivity Index (SI) on Immature Flukes SI=CC50/EC50, 24 hour ([4]; CC50 in MDBK cells / EC50 immature flukes, 24 h): 44 and 44.37; EC50 ([4]; Fasciola hepatica, immature flukes, motility, 24 h exposure, read-out: EC50 with 95% CI on Immature Flukes (motility), 24 hour): 1.07 µM; Effect on adult fluke (Italian strain) movement at lower concentrations, in words ([5]; 13.3 μM and 4.4 μM, after 72 h, compared to DMSO 0.4%): impaired movement; Average motility of 3 parasites treated with 40 µM, 72 hours ([5]; 72 h): 5.66 (5.0,6.3); Selectivity Index (SI) on Adult Flukes SI=CC50/EC50, 72 hour ([5]; CC50 in MDBK cells (24 h) / EC50 adult flukes 72 h): 6.64; Selectivity Index (SI) on Adult Flukes SI=CC50/EC50, 24 hour ([5]; CC50 in MDBK cells / EC50 adult flukes, 24 h): 4 and 3.64; EC50 ([5]; Fasciola hepatica, 24 h exposure, read-out: EC50 with 95% CI on Adult Flukes (motility), 24 hour): 13 µM; EC50 ([5]; Fasciola hepatica, 72 h, read-out: EC50 with 95% CI on Adult Flukes (motility), 72 hour): 7.15 µM; Effect on adult fluke (Italian strain) movement, in words [5]: two out of three adult flukes were completely immobilized
